Assay results reported in patent US20100041089A1, “IMPROVED METHOD FOR DETECTING CHEMICAL […]” (priority 2006, published 2010).

System: yeast genes (expressed mRNA)
Assay: DNA chip measurement of expressed mRNA of yeast genes after culture with a toxic chemical substance
Type: cell-based, Saccharomyces cerevisiae S288C
Details: for level of expressed mRNA in the presence of chemical substance / level in the absence of chemical substance: cultured two hours with the chemical substance; for The level of expressed mRNA in the presence of chemical substance/The level of expressed mRNA in the absence of chemical substance: cultured two hours with substance
Method in brief: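 Fluorescence ratio, treated over untreated, read by chip scanner; ratio of two or more counted significant. Cells: S288C yeast, YPD, 25° C, chemical added at log phase for 2 h at growth-inhibiting, sublethal level. Cy3/Cy5-labeled cDNA from oligo-dT-purified mRNA.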

[Cl][Pb][Cl] [(4), PbCl2]
level of expressed mRNA in the presence of chemical substance / level in the absence of chemical substance (yeast gene YJL097W): 1.6 | The level of expressed mRNA in the presence of chemical substance/The level of expressed mRNA in the absence of chemical substance (yeast gene YJL151C): 1.2 | The level of expressed mRNA in the presence of chemical substance/The level of expressed mRNA in the absence of chemical substance (yeast gene YJL152W): 1.3 | The level of expressed mRNA in the presence of chemical substance/The level of expressed mRNA in the absence of chemical substance (yeast gene YJL161W): 4.6 | The level of expressed mRNA in the presence of chemical substance/The level of expressed mRNA in the absence of chemical substance (yeast gene YJL171C): 1.4 | The level of expressed mRNA in the presence of chemical substance/The level of expressed mRNA in the absence of chemical substance (yeast gene YJR008W): 1.7 | level of expressed mRNA in the presence of chemical substance / level in the absence of chemical substance (yeast gene YJR030C): 1.2 | The level of expressed mRNA in the presence of chemical substance/The level of expressed mRNA in the absence of chemical substance (yeast gene YJR054W): 0.9 | level of expressed mRNA in the presence of chemical substance / level in the absence of chemical substance (yeast gene YKL051W): 0.8 | The level of expressed mRNA in the presence of chemical substance/The level of expressed mRNA in the absence of chemical substance (yeast gene YKL071W): 2.8 | The level of expressed mRNA in the presence of chemical substance/The level of expressed mRNA in the absence of chemical substance (yeast gene YKL086W): 2.6 | level of expressed mRNA in the presence of chemical substance / level in the absence of chemical substance (yeast gene YKL097C): 1.4 | level of expressed mRNA in the presence of chemical substance / level in the absence of chemical substance (yeast gene YKL100C): 1.6 | The level of expressed mRNA in the presence of chemical substance/The level of expressed mRNA in the absence of chemical substance (yeast gene YKL151C): 2.5 | The level of expressed mRNA in the presence of chemical substance/The level of expressed mRNA in the absence of chemical substance (yeast gene YKL153W): 0.7 | The level of expressed mRNA in the presence of chemical substance/The level of expressed mRNA in the absence of chemical substance (yeast gene YKL195W): 1.1 | level of expressed mRNA in the presence of chemical substance / level in the absence of chemical substance (yeast gene YKR040C): 2.9 | The level of expressed mRNA in the presence of chemical substance/The level of expressed mRNA in the absence of chemical substance (yeast gene YKR091W): 3.5 | The level of expressed mRNA in the presence of chemical substance/The level of expressed mRNA in the absence of chemical substance (yeast gene YLR054C): 2.4 | The level of expressed mRNA in the presence of chemical substance/The level of expressed mRNA in the absence of chemical substance (yeast gene YLR149C): 2.3 | The level of expressed mRNA in the presence of chemical substance/The level of expressed mRNA in the absence of chemical substance (yeast gene YLR152C): 0.9 | The level of expressed mRNA in the presence of chemical substance/The level of expressed mRNA in the absence of chemical substance (yeast gene YLR194C): 3.6 | level of expressed mRNA in the presence of chemical substance / level in the absence of chemical substance (yeast gene YLR226W): 1.0 | The level of expressed mRNA in the presence of chemical substance/The level of expressed mRNA in the absence of chemical substance (yeast gene YLR324W): 1.0 | level of expressed mRNA in the presence of chemical substance / level in the absence of chemical substance (yeast gene YLR338W): 1.1 | The level of expressed mRNA in the presence of chemical substance/The level of expressed mRNA in the absence of chemical substance (yeast gene YLR350W): 2.3 | The level of expressed mRNA in the presence of chemical substance/The level of expressed mRNA in the absence of chemical substance (yeast gene YLR387C): 0.6 | level of expressed mRNA in the presence of chemical substance / level in the absence of chemical substance (yeast gene YLR392C): 1.9 | level of expressed mRNA in the presence of chemical substance / level in the absence of chemical substance (yeast gene YLR427W): 0.5 | The level of expressed mRNA in the presence of chemical substance/The level of expressed mRNA in the absence of chemical substance (yeast gene YLR460C): 1.1 | level of expressed mRNA in the presence of chemical substance / level in the absence of chemical substance (yeast gene YML013W): 0.6 | level of expressed mRNA in the presence of chemical substance / level in the absence of chemical substance (yeast gene YML029W): 1.0 | level of expressed mRNA in the presence of chemical substance / level in the absence of chemical substance (yeast gene YML041C): 1.0 | level of expressed mRNA in the presence of chemical substance / level in the absence of chemical substance (yeast gene YML079W): 1.5 | The level of expressed mRNA in the presence of chemical substance/The level of expressed mRNA in the absence of chemical substance (yeast gene YML117W): 1.6 | The level of expressed mRNA in the presence of chemical substance/The level of expressed mRNA in the absence of chemical substance (yeast gene YMR009W): 1.9 | The level of expressed mRNA in the presence of chemical substance/The level of expressed mRNA in the absence of chemical substance (yeast gene YMR067C): 0.4 | level of expressed mRNA in the presence of chemical substance / level in the absence of chemical substance (yeast gene YMR068W): 1.5 | level of expressed mRNA in the presence of chemical substance / level in the absence of chemical substance (yeast gene YMR071C): 1.9 | The level of expressed mRNA in the presence of chemical substance/The level of expressed mRNA in the absence of chemical substance (yeast gene YMR090W): 3.5 | The level of expressed mRNA in the presence of chemical substance/The level of expressed mRNA in the absence of chemical substance (yeast gene YMR095C): 1.0 | The level of expressed mRNA in the presence of chemical substance/The level of expressed mRNA in the absence of chemical substance (yeast gene YMR097C): 1.6 | The level of expressed mRNA in the presence of chemical substance/The level of expressed mRNA in the absence of chemical substance (yeast gene YMR102C): 0.8 | The level of expressed mRNA in the presence of chemical substance/The level of expressed mRNA in the absence of chemical substance (yeast gene YMR107W): 18.4 | level of expressed mRNA in the presence of chemical substance / level in the absence of chemical substance (yeast gene YMR160W): 1.2 | The level of expressed mRNA in the presence of chemical substance/The level of expressed mRNA in the absence of chemical substance (yeast gene YMR180C): 1.3 | The level of expressed mRNA in the presence of chemical substance/The level of expressed mRNA in the absence of chemical substance (yeast gene YMR184W): 1.1 | The level of expressed mRNA in the presence of chemical substance/The level of expressed mRNA in the absence of chemical substance (yeast gene YMR191W): 1.6 | The level of expressed mRNA in the presence of chemical substance/The level of expressed mRNA in the absence of chemical substance (yeast gene YMR295C): 1.6 | The level of expressed mRNA in the presence of chemical substance/The level of expressed mRNA in the absence of chemical substance (yeast gene YMR316W): 1.9 | level of expressed mRNA in the presence of chemical substance / level in the absence of chemical substance (yeast gene YNL026W): 0.8 | The level of expressed mRNA in the presence of chemical substance/The level of expressed mRNA in the absence of chemical substance (yeast gene YNL044W): 1.3
